The test system of one experiment is 4T1 cells. As to the kind of experiment: Immunogenic cell death detection in vitro (HMGB1, CRT, extracellular ATP). The class given is cell-based, Mouse. An excerpt:
It is known that mitochondrial dysfunction occasioned by ROS triggers immunogenic cell death (ICD), characterized by the release of DAMPs from tumor cells, such as high mobility group box 1 (HMGB1), calreticulin (CRT) and ATP. These DAMPs directly reactivated anti-tumor immune response of TAMs of in vivo [33]. Given the encouraging results of ROS generation, the ICD effect of Rhein-DCA conjugate was consequently explored in vitro. HMGB1 is a type of nuclear protein, which would be released to extracellular during the ICD process. […] This was because rhein, DCA, and the R + D cannot induce adequate production of ROS and sufficient ATP depletion (Figure 5F). We further detected the HMGB1 content in the cell culture media with an ELISA kit. […] This further confirmed that Rhein-DCA effectively promoted the release of HMGB1 from the cell nucleus to the extracellular space (Figure S20). Unlike HMGB1, abundant CRT often exposed on the cell membrane surface of tumor cells. Flow cytometry was employed to analyze CRT protein of 4T1 cells. […] The secreted ATP from 4T1 cells with immunogenicity was further measured to evaluate the ICD effect after being cultured with various drugs for 6, 12 and 24 h. […] There was no apparent distinction between rhein, DCA, R + D groups and the control group when co-cultured for 6 or 12 h. A slight difference was observed until the cultivation time was prolonged to 24 h. […] This reminded us that the Rhein-DCA conjugate may enhance tumor treatment by promoting ICD-mediated immunotherapy.
4T1 cells were seeded in 6-well plates and confocal dishes with an identical density of 10 × 10^4 cells per well for 24 h cultivation. The cells were processed with indicated drugs at a concentration of 6.25 μM for another 24 h. The cells were washed twice with PBS and then fixed with 4%-paraformaldehyde (1 mL) for 15 min at 37 °C, followed by two washes with PBS. (1) The cells on confocal dishes were next permeabilized with triton-X-100 for 15 min at room temperature, blocked with BSA solution (5% in PBS) for 1 h at room temperature, and further incubated with rabbit anti-mouse HMGB-1 (1:500) overnight at 4 °C. Afterwards, the cells were incubated with secondary antibody (1:500) for 1 h at room temperature, washed with PBS, and then stained with Hoechst 33342 (10 μg/mL) for 10 min in the dark at room temperature. Finally, confocal microscope was employed to observe the HMGB1 protein within the cells. The secretion of HMGB1 in culture medium was detected by ELISA assay. The culture media was collected and centrifuged at 1000 G for 20 min, the supernatant was collected and detected with ELISA kit according to the manufacturer's protocol. (2) The cells in the 6-well plates were collected in 1.5 mL tubes, stained with rabbit anti-mouse calreticulin (1:1000) for 30 min at 4 °C, washed twice with PBS, and then analyzed with flow cytometry. (3) For the extracellular ATP content, the cells were cultured for 6, 12 and 24 h at 37 °C, and the medium were collected and centrifuged at 1000 G for 20 min, the supernatant was collected and detection with ELISA kit according to the manufacturer's protocol.

The test system of the next experiment is 4T1 tumor. As to the kind of experiment: In vivo antitumor effect, 4T1 tumor xenograft model. The note with it: for tumor H&E and TUNEL staining: 20 mg/kg oral; for tumor H&E and TUNEL staining / tumor growth compared with vehicle group: 24 days; for tumor growth compared with vehicle group: oral gavage daily, n = 5. Also on record: species or system Balb/c mice. The protocol:
The antitumor efficiency of Rhein-DCA conjugate in vivo was explored using the female Balb/c mice with 4T1 tumor xenografts model. Briefly, 4T1-tumor bearing mice were randomly divided into vehicle, rhein, DCA, R + D and Rhein-DCA conjugate groups when the tumor became apparent (n = 5). Mice were treated daily with vehicle (2.85% anhydrous ethanol / 10% cremophor / 0.02% 0.1 M HCl / 87.15% saline) and rhein, DCA, R + D and Rhein-DCA conjugate (20 mg/kg) by oral gavage for 24 days. The body weight and tumor volume of mice were monitored and recorded every two days. […] The photograph and the weight information of all excised tumor xenografts further visually confirmed the antitumor effect of Rhein-DCA conjugate in vivo (Figure 6C-D). […] Due to suppression of tumor growth, the survival of mice treated with Rhein-DCA conjugate was improved in contrast to vehicle group (Figure S22).
Balb/c female mice (6 weeks) and Sprague-Dawley (SD) rats were purchased from Hubei provincial laboratory animal research center (Wuhan, P. R. China). All related animal experiments were approved by the Animal Welfare Committee of the Animal Experiment Center of Wuhan University. All Balb/c mice were shaved two days in advance and then subcutaneously injected with 4T1 cells (5 × 10^6 cells in 50 μL of PBS per mouse) into the back of the right leg. The 4T1 tumor bearing mice were randomly divided into five groups (5 mice per group) which containing vehicle, rhein, DCA, R + D and Rhein-DCA groups when the tumor volumes reached about 100~120 mm^3. The tumor size was calculated with the following formula:
Subsequently, mice were orally treated with vehicle (2.85% anhydrous ethanol / 10% cremophor / 0.02% HCl (0.1 M) / 87.15% saline) and rhein, DCA, R + D and Rhein-DCA (20 mg/kg, suspended in 2.85% anhydrous ethanol / 10% cremophor / 0.02% HCl (0.1 M) / 87.15% saline) every day. The body weight and tumor size changes of each mouse were measured and recorded every two days.
After 24 days, the mice were euthanized, and then tumors were excised to photographing and weighting. The tumors in each group were performed with TUNEL (green fluorescence) and H&E assay. In addition, immunohistochemical staining was conducted on the tumor tissue to determine the pPDHA1-Ser^293 protein level. Besides, immunofluorescence staining was used to detect the expression of HMGB1 protein in the tumor.

With `O=C(O)C(Cl)Cl` [DCA, Dichloroacetate], the “HMGB1 in cell nucleus (CLSM red fluorescence)” value (“HMGB1 in cell nucleus” below) in the experiment on 4T1 cells (6.25 μM, 24 h) was “almost completely located in nuclei”. Further, the “tumor H&E and TUNEL staining” value with 4T1 tumor was “mild apoptosis and necrosis”. Moreover, in the experiment with 4T1 tumor (20 mg/kg), the “tumor growth compared with vehicle group” value is “slight inhibition”.

In the case of `O=C(O)c1cc(O)c2c(c1)C(=O)c1cccc(O)c1C2=O` [Rhein, 4,5-dihydroxyanthraquinone-2-carboxylic acid], the “HMGB1 in cell nucleus” value with 4T1 cells (6.25 μM, 24 h) is given as “almost completely located in nuclei”. The “tumor H&E and TUNEL staining” value in the experiment on 4T1 tumor was “mild apoptosis and necrosis”. For the same compound, in the experiment with 4T1 tumor (20 mg/kg), the “tumor growth compared with vehicle group” value is on record as “slight inhibition”.

Turning to `O=C(OCCOC(=O)C(Cl)Cl)c1cc(O)c2c(c1)C(=O)c1cccc(O)c1C2=O` [Rhein-DCA], the “HMGB1 in cell nucleus” value in the experiment with 4T1 cells (6.25 μM, 24 h) is listed as “disappeared”. For the same compound, the “surface-exposed CRT” value in the experiment with 4T1 cells (6.25 μM, 24 h, flow cytometry) was 44%. For the same compound, the “HMGB1 secreted into the culture medium (ELISA)” value with 4T1 cells (6.25 μM, 24 h, vs control, rhein, DCA, R + D) is on record as “increased significantly”. For the same compound, the “extracellular ATP in supernatants” value in the experiment on 4T1 cells (6 h to 24 h, vs other groups) was “higher”. Besides, the “tumor H&E and TUNEL staining” value in the experiment on 4T1 tumor is “more extensive tissue necrosis and considerable cell apoptosis”. Besides, in the experiment with 4T1 tumor (20 mg/kg, oral), the “survival of mice in contrast to vehicle group” value is on record as “improved”. Besides, the “tumor growth compared with vehicle group” value in the experiment with 4T1 tumor (20 mg/kg) was “significant inhibition”.

Source of the values: publication PMC12036875, “Mitochondria-targeting natural product rhein conjugated with dichloroacetate as the dual inhibitor of glycolysis and oxidative phosphorylation to off energize cancer cells and induce ROS storm” (Theranostics, 2025).
